Experimental findings from patent US6906061B2, “Pharmaceutical agent containing Rho kinase inhibitor” (Mitsubishi Pharma Corporation, priority 1996, dated 2005) are described below.

The test system of experiment [1] is normal human umberical vascular endothelial cells. As to the kind of experiment: Inhibition of angiogenesis (lumen formation in vascular endothelial cells). As to conditions: 18 hours, compared with the control, number rises with inhibition of lumen formation. The experiment is classed as cell-based. How it is done:
Inhibition of Angiogenesis
The inhibition of angiogenesis was evaluated by using the inhibition of lumen formation in vascular endothelial cell as an index. To be specific, normal human umberical vascular endothelial cells (KURABO […] LTD.) were suspended in E-GMUV medium at 5.5×10^4 cells/ml and 400 μl therefrom was added on matrigel plate (EHS sarcoma-derived reconstructed basement membrane, Collaborative Biomedical Products). Then, the test compound (1 mM solution, 4 μl) was added and the cells were incubated at 37° C. under 5% CO2 gas for 18 hours. After the completion of the incubation, the number of lumen per predetermined area was counted under a microscope. Inasmuch as the number of lumen increases by the inhibition of lumen formation, the test compound was evaluated by comparison of the number of lumen with the control.

The test system of experiment [2] is thoractic aorta ring contracted with phenylephrine. Description: Vasodilating action on phenylephrine-contracted thoracic aorta rings. The settings on record: Oryctolagus cuniculus; rabbit aortic ring, phenylephrine 10^−6 M contraction; concentration for 50% relaxation; read-out: Vasorelaxing action. On the procedure:
Male rabbits (body weight 1.9-3.0 kg) were anesthetized with pentobarbital sodium and exsanguinated, whereafter thoractic aorta was removed. An about 2 mm width aortic ring samples were prepared and hung in a Magnus bath (40 ml) filled with Krebs-Henseleit solution (37° C., NaCl 117 mM; KCl 4.7 mM; CaCl2 2.5 mM; MgSO4 1.2 mM; NaHCO3 24.8 mM; KH2PO4 1.2 mM; glucose 11.0 mM) at a load of 2 g. The Magnus bath was constantly bubbled with a mixed gas (95% O2+5% CO2 gas). The tension of the preparation was measured with an isomeric transducer (TB-611T, Nippon Koden). The preparation was contracted with phenylephrine (10^−6 M) and, after the contraction was stabilized, the test compound was added accumulatively and relaxing action was observed.

Experiment [3] relates to BALB/c spleen cells stimulated with C57BL/6 spleen cells. As to the kind of experiment: Inhibition of mouse allogenic mixed lymphocyte reaction. As to conditions: Mus musculus, Lymphocyte, 96 h; 4 days culture, MTT; read-out: Mouse allogenic MLR inhibitory activity IC50. The format is cell-based. On the procedure: Inhibition of Mouse Allogenic Mixed Lymphocyte Reaction
A mouse allogenic mixed lymphocyte reaction (hereinafter to be referred to as mouse allogenic MLR) was performed by mixed culture (equal ratio) of the spleen cell of BALB/c mice as the reaction cell and the spleen cell of C57BL/6 mice treated with mitomycin C as stimulated cell.
The reaction cells were prepared by the following method. Spleen was removed from 5-6 week old BALB/c mice and treated with RPMI1640 medium (containing kanamycin sulfate (60 μg/ml), penicillin G potassium (100 units/ml), N-2-hydroxyethylpiperazine-N′-2-ethanesulfonate (10 mM), 0.1% sodium hydrogencarbonate and L-glutamin (2 mM)) supplemented with 5% heat inactivated fetal bovine serum (FBS) to give a single cell suspension of the spleen cell. After hemolysis treatment, the suspension was adjusted to10^7 cells/ml with RPMI1640 medium containing 10^−4 M 2-mercaptoethanol and 10% FBS and used as a reaction cell suspension.
The reaction cell suspension (50 μl) prepared by the above method, stimulated cell suspension (50 μl) and the test compound (100 μl) prepared using RPMI1640 medium containing 10% FBS were added to a 96 well plate and incubated at 37° C. under 5% CO2 gas, 95% air for 4 days.
A pigment assay using 3-(4,5-dimethylthiazol-2-yl)-2,5-diphenyltetrazolium bromide (MTT) was applied for the determination of lymphocyte transformation reaction.
After the completion of culture, the supernatant (100 μl) in each well was removed, and 5 mg/ml MTT solution (20 μl) was added to each well, which was followed by incubation at 37° C. for 4 hours. Then, a 0.01 N hydrochloric acid solution (100 μl) containing 10% sodium dodecyl sulfate was added and the mixture was incubated at 37° C. overnight. The resulting purple crystals of formazan was dissolved and absorbance at 550 nm was measured using a microplate absorption meter, which was used as the index of lymphocyte transformation reaction of the mouse allogenic MLR. The inhibition of mouse allogenic MLR was evaluated by calculating the inhibition percentage by the following formula The results are shown in Table 7.

For experiment [4], the system named is Bovine Aorta Thoracia Rho Kinase. Description: Rho kinase inhibitory action (inhibition of bovine aorta thoracia Rho kinase). The experiment is classed as biochemical. On the procedure:
Rho Kinase Inhibitory Action (Inhibition of Bovine Aorta Thoracia Rho Kinase)
The Rho kinase was prepared from bovine aorta of thorax by partial purification as in the following. The artery was minced and homogenized with a 9-fold amount of 50 mM Tris-hydroxymethylaminomethane (Tris) (pH=7.4), 1 mM dithiothreitol, 1 mM EGTA, 1 mM EDTA, 100 μM p-amidinophenylmethylsulfonyl fluoride, 5 μM E-64, 5 μM leupeptine and 5 μM pepstatin A. The homogenate was centrifuged (10,000×g, 30 minutes) to give supernatant. The supernatant was adsorbed onto a hydroxyapatite column. The column was washed with 0.2M phosphate buffer (pH=6.8). The standard product of Rho kinase was eluted with 0.4M phosphate buffer (pH=6.8). The Rho kinase was assayed as follows.
A reaction mixture (total amount 50 μl) containing 50 mM Tris, 1 mM EDTA, 5 mM MgCl2, 50 μg/ml histone, 10 μM GTPγS, 100 μg/ml Rho, 2 μM [^32P]ATP, the Rho kinase (3 μl) prepared in the above and the test compound was reacted at 30° C. for 5 minutes. The reaction was terminated by the addition of 25% trichloroacetic acid (TCA) solution (1 ml) and the mixture was stood at 4° C. for 30 minutes. Then, the mixture was filtered through a membrane filter (HAWP type, Millipore), and the radioactivity of the filter was counted on a liquid scintillation counter. The inhibitory action of the test compound was calculated from the following formula based on the comparison of the radioactivity with the sample without the test compound (control).

For experiment [5], the system named is mouse femoral bone. Description: Inhibition of bone resorption (in vitro), mouse femoral bone. As to conditions: 144 h, 6 days incubation of ICR mouse femoral bone. How it is done: Inhibition of Bone Resorption (in vitro)
The determination of the in vitro inhibition of bone resorption using mouse femoral bone followed the method below.
The femoral bone of 3-6 week old male ICR mice was aseptically removed, and bone marrow cavity was washed with F12 medium, containing 10% heat inactivated fetal bovine serum, penicillin G calcium (100 units/ml), kanamycin sulfate (60 μg) and 0.15% sodium hydrogencarbonate (hereinafter the medium is to be referred to as culture solution). After washing the bone marrow cavity and then removing the soft tissue adhered to the bone, the bone was subjected to incubation. The test compound was once dissolved in dimethyl sulfoxide (DMSO) to give a 10 mg/ml solution, which was diluted 1000-fold with the culture solution to give a 10 μg/ml solution. The test compounds were respectively added to the concentration shown in Table 7 and, using this culture solution (1.2 ml), the ICR mouse femoral bone was incubated in a 24 well plate for 6 days under the conditions of 5% CO2 gas, 95% air. After the completion of the incubation, the culture supernatant was recovered, and the amount of calcium suspending in the culture supernatant was quantitatively determined by the chelate method using o-cresolphthalein. The bone resorption inhibitory action of the test compound was calculated by the following formula using the incubation of the femoral bone without addition of the test compound as a control. [formula] This experiment was done with 4 cases in each group. As the control, the same amount of DMSO alone as in the case with the addition of the test compound was used.

Consider `CC(N)[C@H]1CC[C@H](C(=O)Nc2ccncc2)CC1` (single isomer, unassigned; (+)) [Compound 80.2HCl.H2O, (+)-trans-4-(1-aminoethyl)-1-(4-pyridylcarbamoyl)cyclohexane], for which the “Number of lumen (10 μM)” value in experiment [1] is 174%. The IC50 in experiment [2] turned out to be 700 nM; in experiment [3], 9600 nM. Further, the “Inhibition (%)” value in experiment [4] (test compound 10 μM) was found to be 100%. For the same compound, in experiment [5], the inhibition (usually the share of the control response that was lost under treatment) at 100 µM was 40.9%.
Regarding `CC(N)[C@H]1CC[C@H](C(=O)Nc2ccnc3[nH]ccc23)CC1` (single isomer, unassigned; (+)) [Compound 109.2HCl, (+)-trans-N-(1H-pyrrolo[2,3-b]pyridin-4-yl)-4-(1-aminoethyl)cyclohexanecarboxamide], the “Number of lumen (10 μM)” value in experiment [1] amounted to 153%. Further, the results for the IC50 in experiment [2] and in experiment [3] were 100 nM and 1600 nM, respectively. The entries for the “Inhibition (%)” value in experiment [4] (test compound 1 μM) and in experiment [4] (test compound 10 μM) were 81% and 100%, respectively. For the same compound, the inhibition at 100 µM in experiment [5] worked out at 42.6%.
